Measured values published in US20210324359A1, “USE OF GRAM-NEGATIVE LYSIN-ANTIMICROBIAL PEPTIDE (AMP) POLYPEPTIDE CONSTRUCTS IN TREATING ENDOCARDITIS” (priority 2020, published 2021).
Read-outs that look alike come from different tables or passages of the source.

Key:
[1] = test system: P. aeruginosa isolates; assay: MIC against a range of isolates in CAA + […] human serum (Table 11); assay type: cell-based, Pseudomonas aeruginosa; conditions: Pseudomonas aeruginosa
[2] = test system: carbapenem-resistant P. aeruginosa strains; assay: Resensitization of carbapenem-resistant strains, combinations with imipenem or meropenem (Tables 18-22); assay type: cell-based, Pseudomonas aeruginosa; conditions: for MIC: Pseudomonas aeruginosa
[3] = test system: P. aeruginosa (PA20); assay: Rabbit infective endocarditis model (Tables 28-32, FIGS. 5-8); assay type: in vivo, Pseudomonas aeruginosa in rabbits; conditions: Meropenem 5 mg/kg
Protocol: Initially, a polyethylene catheter was placed into the rabbits' right ventricle and secured. 48 hours after catheter placement, rabbits were infected intravenously with P. aeruginosa (PA20) (6×10^9 CFU/mL). Treatment commenced 24 hours post-infection.
Data were analyzed using the Kruskal-Wallis method for multiple comparison and then adjusted with a false discovery rate approach (Benjamini-Hochberg method), using StatsDirect Software. A p-value of <0.05 was considered statistically significant.

[4] = test system: P. aeruginosa PA20; assay: MIC of GN370 and meropenem against the infecting strain; assay type: cell-based, Pseudomonas aeruginosa; conditions: Pseudomonas aeruginosa
[5] = in combination with GN123, isolate PA19
[6] = in combination with GN123, isolate PA20
[7] = in combination with GN123, isolate PA21
[8] = in combination with GN123, isolate PA22
[9] = in combination with GN123, isolate PA23
[10] = in combination with GN123, isolate PA24
[11] = in combination with GN123, isolate WC-452

C[C@@H](O)[C@H]1C(=O)N2C(C(=O)O)=C(S[C@@H]3CN[C@H](C(=O)N(C)C)C3)[C@H](C)[C@H]12 [Meropenem, meropenem, reference compound]
MIC ([1]; ATCC17646, read-out: Meropenem MIC, strain CFS 1109 (ATCC 17646)): 0.5 µg/mL | MIC ([1]; ATCC27853, read-out: Meropenem MIC, strain CFS 1766 (ATCC 27853)): 1 µg/mL | MIC ([1]; PA1, read-out: Meropenem MIC, strain CFS1539 (PA1)): 16 µg/mL | MIC ([1]; read-out: Meropenem MIC, strain CFS 1292): 32 µg/mL | MIC ([1]; read-out: Meropenem MIC, strain CFS 1540 (PA2)): 16 µg/mL | MIC ([1]; read-out: Meropenem MIC, strain CFS 1541 (PA3)): 8 µg/mL | MIC ([1]; read-out: Meropenem MIC, strain CFS 1557 (PA19)): 32 µg/mL | MIC ([1]; read-out: Meropenem MIC, strain CFS 1558 (PA20)): 16 µg/mL | MIC ([1]; read-out: Meropenem MIC, strain CFS 1559 (PA21)): > 32 µg/mL | MIC ([1]; read-out: Meropenem MIC, strain CFS 1560 (PA22)): 16 µg/mL | MIC ([1]; read-out: Meropenem MIC, strain CFS 1561 (PA23)): 16 µg/mL | MIC ([1]; read-out: Meropenem MIC, strain CFS 1562 (PA24)): > 32 µg/mL | MIC ([1]; read-out: Meropenem MIC, strain CFS 1596 (PA26)): 0.5 µg/mL | MIC ([1]; read-out: Meropenem MIC, strain CFS 1597 (PA27)): 1 µg/mL | MIC ([1]; read-out: Meropenem MIC, strain CFS 1669 (PA41)): < 0.25 µg/mL | MIC ([1]; read-out: Meropenem MIC, strain CFS 1674 (PA46)): 4 µg/mL | MIC ([1]; read-out: Meropenem MIC, strain CFS 1675 (PA47)): 4 µg/mL | MIC ([2]; isolate PA19): 32 µg/mL | MIC ([2]; isolate PA20): 16 µg/mL | MIC ([2]; isolate PA21): 32 µg/mL | MIC ([2]; isolate PA22): 16 µg/mL | MIC ([2]; isolate PA23): 16 µg/mL | MIC ([2]; isolate PA24): 32 µg/mL | MIC ([2]; isolate WC-452): 16 µg/mL | antibiotic MIC, Combination ([2]; in combination with GN121, isolate PA19): 1 µg/mL | antibiotic MIC, Combination ([2]; in combination with GN121, isolate PA20): 1 µg/mL | antibiotic MIC, Combination ([2]; in combination with GN121, isolate PA21): 2 µg/mL | antibiotic MIC, Combination ([2]; in combination with GN121, isolate PA22): 1 µg/mL | antibiotic MIC, Combination ([2]; in combination with GN121, isolate PA23): 2 µg/mL | antibiotic MIC, Combination ([2]; in combination with GN121, isolate PA24): 1 µg/mL | antibiotic MIC, Combination ([2]; in combination with GN121, isolate WC-452): 1 µg/mL | antibiotic MIC, Combination [2, 5]: 0.5 µg/mL | carbapenem susceptibility class, Combination [2, 5]: (S) ((S) = sensitive) | antibiotic MIC, Combination [2, 6]: 0.5 µg/mL | carbapenem susceptibility class, Combination [2, 6]: (S) ((S) = sensitive) | antibiotic MIC, Combination [2, 7]: 1 µg/mL | carbapenem susceptibility class, Combination [2, 7]: (S) ((S) = sensitive) | antibiotic MIC, Combination [2, 8]: 1 µg/mL | carbapenem susceptibility class, Combination [2, 8]: (S) ((S) = sensitive) | antibiotic MIC, Combination [2, 9]: 0.5 µg/mL | carbapenem susceptibility class, Combination [2, 9]: (S) ((S) = sensitive) | antibiotic MIC, Combination [2, 10]: 2 µg/mL | carbapenem susceptibility class, Combination [2, 10]: (S) ((S) = sensitive) | antibiotic MIC, Combination [2, 11]: 1 µg/mL | carbapenem susceptibility class, Combination [2, 11]: (S) ((S) = sensitive) | carbapenem susceptibility class, Combination ([2]; in combination with GN351, vs. WC-452): (S) ((S) = sensitive) | carbapenem susceptibility class, Combination ([2]; in combination with GN370, vs. WC-452): (S) ((S) = sensitive) | carbapenem susceptibility class, Combination ([2]; in combination with GN428, vs. WC-452): (S) ((S) = sensitive) | carbapenem susceptibility class, antibiotic Alone ([2]; isolate PA19): R ((R) = resistant) | carbapenem susceptibility class, antibiotic Alone ([2]; isolate PA20): R ((R) = resistant) | carbapenem susceptibility class, antibiotic Alone ([2]; isolate PA21): R ((R) = resistant) | carbapenem susceptibility class, antibiotic Alone ([2]; isolate PA22): R ((R) = resistant) | carbapenem susceptibility class, antibiotic Alone ([2]; isolate PA23): R ((R) = resistant) | carbapenem susceptibility class, antibiotic Alone ([2]; isolate PA24): R ((R) = resistant) | carbapenem susceptibility class, antibiotic Alone ([2]; isolate WC-452): R ((R) = resistant) | Antibiotic MIC / Lysin MIC, Alone ([2]; vs. WC-452 (Table 22)): 16 | Bacterial burden, Mean ([3]; cardiac vegetation): 7.22 log10 CFU/g | Mean log10 CFU change v. 24 hr control ([3]; cardiac vegetation): −0.68 log10 CFU | Mean log10 CFU change v. vehicle ([3]; cardiac vegetation): −0.13 log10 CFU | Bacterial burden, Mean ([3]; kidney tissue): 4.64 log10 CFU/g | Mean log10 CFU change v. 24 hr control ([3]; kidney tissue): −1.32 log10 CFU | Mean log10 CFU change v. vehicle ([3]; kidney tissue): −0.55 log10 CFU | Bacterial burden, Mean ([3]; lung tissue): 3.75 log10 CFU/g | Mean log10 CFU change v. 24 hr control ([3]; lung tissue): −1.41 log10 CFU | Mean log10 CFU change v. vehicle ([3]; lung tissue): −1.25 log10 CFU | Bacterial burden, Mean ([3]; spleen tissue): 3.95 log10 CFU/g | Mean log10 CFU change v. 24 hr control ([3]; spleen tissue): −1.00 log10 CFU | Mean log10 CFU change v. vehicle ([3]; spleen tissue): −1.62 log10 CFU | MIC ([4]; GN370, read-out: MIC against P. aeruginosa): 16 µg/mL | MIC ([4]; PA20, read-out: MIC of P. aeruginosa PA20): 16 µg/mL
